Experimental data from US20230398130A1, “METHODS AND COMPOSITIONS FOR DIFFERENTIATING STEM CELLS” (Massachusetts Institute of Technology, priority 2020, published 2023).

What was measured:
ISC-enriched organoids [1] = experiment: Primary screen, 384-well 2.5-D organoid differentiation (ENR+CD, 6 days): basal lysozyme secretion (LYZ.NS); type: cell-based, murine; details: for Dose.FC.LYZ.NS / SSMD.LYZ.NS: primary screen; for Dose.FC.LYZ.NS: FC vs plate median; for Z.LYZ.NS: standard z score of FC; for SSMD.LYZ.NS: strictly standardized mean difference
Description: (§1) High-throughput screening.

ISC-enriched organoids [2] = experiment: Primary screen, 384-well 2.5-D organoid differentiation (ENR+CD, 6 days): carbachol-induced lysozyme secretion (LYZ.S); type: cell-based, murine; details: primary screen; for Dose.FC.LYZ.S: FC vs plate median; for Z.LYZ.S: standard z score; for SSMD.LYZ.S: strictly standardized mean difference
Description: as §1

ISC-enriched organoids [3] = experiment: Primary screen, 384-well 2.5-D organoid differentiation (ENR+CD, 6 days, Target Selective Inhibitor Library, vs whole-plate median): ATP (CellTiter-Glo 3D, CTG); details: for Dose.FC.CTG / SSMD.CTG: primary screen; for Dose.FC.CTG: FC vs plate median; for Z.CTG: standard z score of FC; for SSMD.CTG: strictly standardized mean difference
[4] = 1st of the 4 dose lines of the treatment (dose not given)
[5] = 2nd of the 4 dose lines of the treatment (dose not given)
[6] = 3rd of the 4 dose lines of the treatment (dose not given)
[7] = 4th of the 4 dose lines of the treatment (dose not given)

Row | Structure (SMILES) | SSMD.LYZ.NS (ISC-enriched organoids [1]; [4]) | SSMD.LYZ.NS (ISC-enriched organoids [1]; [5]) | SSMD.LYZ.NS (ISC-enriched organoids [1]; [6]) | SSMD.LYZ.NS (ISC-enriched organoids [1]; [7]) | Z.LYZ.S (ISC-enriched organoids [2]; [4]) | Z.LYZ.S (ISC-enriched organoids [2]; [5]) | Z.LYZ.S (ISC-enriched organoids [2]; [6]) | Z.LYZ.S (ISC-enriched organoids [2]; [7]) | SSMD.LYZ.S (ISC-enriched organoids [2]; [4]) | SSMD.LYZ.S (ISC-enriched organoids [2]; [5]) | SSMD.LYZ.S (ISC-enriched organoids [2]; [6]) | SSMD.LYZ.S (ISC-enriched organoids [2]; [7]) | Z.CTG (ISC-enriched organoids [3]; Dose 0.08 uM) | Z.CTG (ISC-enriched organoids [3]; Dose 0.40 uM) | Z.CTG (ISC-enriched organoids [3]; Dose 2.00 uM) | Z.CTG (ISC-enriched organoids [3]; Dose 10.00 uM) | SSMD.CTG (ISC-enriched organoids [3]; [4]) | SSMD.CTG (ISC-enriched organoids [3]; [5]) | SSMD.CTG (ISC-enriched organoids [3]; [6]) | SSMD.CTG (ISC-enriched organoids [3]; [7]) | also measured
1 | C[C@](O)(COc1ccc(C#N)cc1)C(=O)Nc1ccc(C#N)c(C(F)(F)F)c1 [MK-2866 (GTx-024)] | 0.314 | 0.150 | 0.169 | −0.515 | 0.466 | 0.322 | 0.506 | −0.463 | 0.378 | 0.164 | 0.307 | −0.543 | 0.003 | −0.474 | −0.210 | −0.877 | 0.004 | −0.285 | −0.199 | −0.814 | Dose.FC.LYZ.NS (ISC-enriched organoids [1]; Dose 0.08 uM): 0.035 log 2 fold change; Z.LYZ.NS (ISC-enriched organoids [1]; Dose 0.08 uM): 0.309; Dose.FC.LYZ.NS (ISC-enriched organoids [1]; Dose 0.40 uM): 0.028 log 2 fold change; Z.LYZ.NS (ISC-enriched organoids [1]; Dose 0.40 uM): 0.241; Dose.FC.LYZ.NS (ISC-enriched organoids [1]; Dose 2.00 uM): 0.036 log 2 fold change; Z.LYZ.NS (ISC-enriched organoids [1]; Dose 2.00 uM): 0.310; Dose.FC.LYZ.NS (ISC-enriched organoids [1]; Dose 10.00 uM): −0.059 log 2 fold change; Z.LYZ.NS (ISC-enriched organoids [1]; Dose 10.00 uM): −0.510; Dose.FC.LYZ.S (ISC-enriched organoids [2]; Dose 0.08 uM): 0.072 log 2 fold change; Dose.FC.LYZ.S (ISC-enriched organoids [2]; Dose 0.40 uM): 0.050 log 2 fold change; Dose.FC.LYZ.S (ISC-enriched organoids [2]; Dose 2.00 uM): 0.078 log 2 fold change; Dose.FC.LYZ.S (ISC-enriched organoids [2]; Dose 10.00 uM): −0.072 log 2 fold change; Dose.FC.CTG (ISC-enriched organoids [3]; Dose 0.08 uM): 0.001 log 2 fold change; Dose.FC.CTG (ISC-enriched organoids [3]; Dose 0.40 uM): −0.198 log 2 fold change; Dose.FC.CTG (ISC-enriched organoids [3]; Dose 2.00 uM): −0.088 log 2 fold change; Dose.FC.CTG (ISC-enriched organoids [3]; Dose 10.00 uM): −0.367 log 2 fold change
2 | O=C(O)Cn1nnc(-c2cc(N3CCC(Oc4cc(F)ccc4Br)CC3)no2)n1 [MK-8245] | 0.168 | 0.200 | −0.322 | −0.716 | 0.449 | 1.194 | −0.399 | −0.799 | 0.442 | 0.527 | −0.357 | −0.752 | 0.374 | −0.269 | −0.051 | −0.629 | 0.453 | −0.219 | −0.054 | −0.921 | 
3 | COc1ccc(CNCc2cccc3ccccc23)cc1.Cl [ML133 HCl] | 0.282 | −0.131 | 0.740 | −0.152 | 0.404 | −0.118 | 0.565 | −0.089 | 0.324 | −0.129 | 0.368 | −0.088 | −0.023 | −0.360 | −0.591 | −0.096 | −0.026 | −0.437 | −0.560 | −0.133 | Dose.FC.LYZ.NS (ISC-enriched organoids [1]; Dose 0.08 uM): 0.030 log 2 fold change; Z.LYZ.NS (ISC-enriched organoids [1]; Dose 0.08 uM): 0.261; Dose.FC.LYZ.NS (ISC-enriched organoids [1]; Dose 0.40 uM): −0.013 log 2 fold change; Z.LYZ.NS (ISC-enriched organoids [1]; Dose 0.40 uM): −0.116; Dose.FC.LYZ.NS (ISC-enriched organoids [1]; Dose 2.00 uM): 0.073 log 2 fold change; Z.LYZ.NS (ISC-enriched organoids [1]; Dose 2.00 uM): 0.633; Dose.FC.LYZ.NS (ISC-enriched organoids [1]; Dose 10.00 uM): −0.018 log 2 fold change; Z.LYZ.NS (ISC-enriched organoids [1]; Dose 10.00 uM): −0.155; Dose.FC.LYZ.S (ISC-enriched organoids [2]; Dose 0.08 uM): 0.062 log 2 fold change; Dose.FC.LYZ.S (ISC-enriched organoids [2]; Dose 0.40 uM): −0.018 log 2 fold change; Dose.FC.LYZ.S (ISC-enriched organoids [2]; Dose 2.00 uM): 0.087 log 2 fold change; Dose.FC.LYZ.S (ISC-enriched organoids [2]; Dose 10.00 uM): −0.014 log 2 fold change; Dose.FC.CTG (ISC-enriched organoids [3]; Dose 0.08 uM): −0.009 log 2 fold change; Dose.FC.CTG (ISC-enriched organoids [3]; Dose 0.40 uM): −0.151 log 2 fold change; Dose.FC.CTG (ISC-enriched organoids [3]; Dose 2.00 uM): −0.247 log 2 fold change; Dose.FC.CTG (ISC-enriched organoids [3]; Dose 10.00 uM): −0.040 log 2 fold change
4 | CCCC(=O)Nc1cccc(NC(=O)c2ccccc2Br)c1 [ML161] | 0.117 | −0.239 | 0.354 | −0.421 | 0.113 | −0.173 | 0.158 | −0.429 | 0.096 | −0.148 | 0.152 | −0.282 | 0.205 | 0.067 | 0.157 | −0.084 | 0.278 | 0.087 | 0.229 | −0.107 | Dose.FC.LYZ.NS (ISC-enriched organoids [1]; Dose 0.08 uM): 0.018 log 2 fold change; Z.LYZ.NS (ISC-enriched organoids [1]; Dose 0.08 uM): 0.158; Dose.FC.LYZ.NS (ISC-enriched organoids [1]; Dose 0.40 uM): −0.027 log 2 fold change; Z.LYZ.NS (ISC-enriched organoids [1]; Dose 0.40 uM): −0.237; Dose.FC.LYZ.NS (ISC-enriched organoids [1]; Dose 2.00 uM): 0.037 log 2 fold change; Z.LYZ.NS (ISC-enriched organoids [1]; Dose 2.00 uM): 0.323; Dose.FC.LYZ.NS (ISC-enriched organoids [1]; Dose 10.00 uM): −0.057 log 2 fold change; Z.LYZ.NS (ISC-enriched organoids [1]; Dose 10.00 uM): −0.494; Dose.FC.LYZ.S (ISC-enriched organoids [2]; Dose 0.08 uM): 0.017 log 2 fold change; Dose.FC.LYZ.S (ISC-enriched organoids [2]; Dose 0.40 uM): −0.027 log 2 fold change; Dose.FC.LYZ.S (ISC-enriched organoids [2]; Dose 2.00 uM): 0.024 log 2 fold change; Dose.FC.LYZ.S (ISC-enriched organoids [2]; Dose 10.00 uM): −0.066 log 2 fold change; Dose.FC.CTG (ISC-enriched organoids [3]; Dose 0.08 uM): 0.086 log 2 fold change; Dose.FC.CTG (ISC-enriched organoids [3]; Dose 0.40 uM): 0.028 log 2 fold change; Dose.FC.CTG (ISC-enriched organoids [3]; Dose 2.00 uM): 0.066 log 2 fold change; Dose.FC.CTG (ISC-enriched organoids [3]; Dose 10.00 uM): −0.035 log 2 fold change
